Test results reported in patent US9822114B2, “Tricyclic oxazolidinone antibiotic compounds” (Idorsia Pharmaceuticals Ltd, priority 2008, dated 2017).

system: M. catarrhalis A894; experiment: Minimal inhibitory concentration (MIC), microdilution method in cation-adjusted Mueller-Hinton Broth (CLSI M7-A7); type: cell-based; conditions: Moraxella catarrhalis, strain A894
Protocol: Minimal inhibitory concentrations (MICs; mg/1) were determined in cation-adjusted Mueller-Hinton Broth by a microdilution method following the description given in “Methods for Dilution Antimicrobial Susceptibility Tests for Bacteria that Grow Aerobically”, Approved standard, 7th ed., Clinical and Laboratory Standards Institute (CLSI) Document M7-A7, Wayne, Pa., USA, 2006.

Molecule	MIC [µg/mL]
O=C1COc2ccc(N3C[C@H](CCNCC4Cn5c(=O)ccc6ncc(F)c4c65)OC3=O)cc2N1 (mixture of isomers) [Example 102, (RS)-3-fluoro-4-({2-[(S)-2-oxo-3-(3-oxo-3,4-dihydro-2H-benzo[1,4]oxazin-6-yl)-oxazolidin-5-yl]-ethylamino}-methyl)-4,5-dihydro-pyrrolo[3,2,1-de][1,5]naphthyridin-7-one]	≤ 0.031
O=C1CSc2ccc(N3C[C@H](CCNCC4Cn5c(=O)ccc6ccc(F)c4c65)OC3=O)cc2N1 (mixture of isomers) [Example 4, (1RS)-9-fluoro-1-({2-[(S)-2-oxo-3-(3-oxo-3,4-dihydro-2H-benzo[1,4]thiazin-6-yl)-oxazolidin-5-yl]-ethylamino}-methyl)-1,2-dihydro-pyrrolo[3,2,1-ij]quinolin-4-one]	≤ 0.031
O=C1COc2ccc(N3C[C@H](CCCN[C@@H]4Cn5c(=O)ccc6cccc4c65)OC3=O)cc2N1 [Example 86, (S)-1-{3-[(S)-2-oxo-3-(3-oxo-3,4-dihydro-2H-benzo[1,4]oxazin-6-yl)-oxazolidin-5-yl]-propylamino}-1,2-dihydro-pyrrolo[3,2,1-ij]quinolin-4-one]	≤ 0.031
O=C1CSc2ccc(N3C[C@H](CCCN[C@H]4Cn5c(=O)ccc6ccc(F)c4c65)OC3=O)cc2N1 [Example 129, (R)-9-fluoro-1-{3-[(S)-2-oxo-3-(3-oxo-3,4-dihydro-2H-benzo[1,4]thiazin-6-yl)-oxazolidin-5-yl]-propylamino}-1,2-dihydro-pyrrolo[3,2,1-ij]quinolin-4-one]	≤ 0.031
O=C1CSc2ccc(N3C[C@@H](CCCNC4Cn5c(=O)ccc6ccc(F)c4c65)OC3=O)cc2N1 (mixture of isomers) [Example 13, (1RS)-9-fluoro-1-{3-[(R)-2-oxo-3-(3-oxo-3,4-dihydro-2H-benzo[1,4]thiazin-6-yl)-oxazolidin-5-yl]-propylamino}-1,2-dihydro-pyrrolo[3,2,1-ij]quinolin-4-one]	≤ 0.031
O=C1CSc2ccc(N3C[C@H](CCN(CCO)CC4Cn5c(=O)ccc6ccc(F)c4c65)OC3=O)cc2N1 (mixture of isomers) [Example 91, (RS)-9-fluoro-1-[((2-hydroxy-ethyl)-{2-[(S)-2-oxo-3-(3-oxo-3,4-dihydro-2H-benzo[1,4]thiazin-6-yl)-oxazolidin-5-yl]-ethyl}-amino)-methyl]-1,2-dihydro-pyrrolo[3,2,1-ij]quinolin-4-one]	≤ 0.031
O=C1COc2ccc(N3C[C@@H](CCCNC4Cn5c(=O)ccc6ccc(F)c4c65)OC3=O)nc2N1 (mixture of isomers) [Example 70, (RS)-9-fluoro-1-{3-[(R)-2-oxo-3-(3-oxo-3,4-dihydro-2H-pyrido[3,2-b][1,4]oxazin-6-yl)-oxazolidin-5-yl]-propylamino}-1,2-dihydro-pyrrolo[3,2,1-ij]quinolin-4-one]	≤ 0.031
O=C1CSc2ccc(N3C[C@@H](CCCN(CCO)[C@@H]4Cn5c(=O)cnc6ccc(F)c4c65)OC3=O)cc2N1 [Example 66, (S)-7-fluoro-6-((2-hydroxy-ethyl)-{3-[(R)-2-oxo-3-(3-oxo-3,4-dihydro-2H-benzo[1,4]thiazin-6-yl)-oxazolidin-5-yl]-propyl}-amino)-5,6-dihydro-pyrrolo[1,2,3-de]quinoxalin-3-one]	≤ 0.031
O=C1COc2ccc(N3C[C@@H](CCNCC4Cn5c(=O)ccc6ncc(F)c4c65)OC3=O)cc2N1 (mixture of isomers) [Example 103, (RS)-3-fluoro-4-({2-[(R)-2-oxo-3-(3-oxo-3,4-dihydro-2H-benzo[1,4]oxazin-6-yl)-oxazolidin-5-yl]-ethylamino}-methyl)-4,5-dihydro-pyrrolo[3,2,1-de][1,5]naphthyridin-7-one]	≤ 0.031
O=C1CSc2ccc(N3C[C@@H](CCCCN[C@H]4Cn5c(=O)ccc6ccc(F)c4c65)OC3=O)cc2N1 (racemic) [Example 159, (RS)-9-fluoro-1-{4-[(RS)-2-oxo-3-(3-oxo-3,4-dihydro-2H-benzo[1,4]thiazin-6-yl)-oxazolidin-5-yl]-butylamino}-1,2-dihydro-pyrrolo[3,2,1-ij]quinolin-4-one]	≤ 0.031
O=C1COc2ccc(N3C[C@@H](CCCN[C@@H]4Cn5c(=O)ccc6cccc4c65)OC3=O)cc2N1 [Example 73, (S)-1-{3-[(R)-2-oxo-3-(3-oxo-3,4-dihydro-2H-benzo[1,4]oxazin-6-yl)-oxazolidin-5-yl]-propylamino}-1,2-dihydro-pyrrolo[3,2,1-ij]quinolin-4-one]	≤ 0.031
Cl.O=C1CSc2ccc(N3C[C@@H](CCCN[C@@H]4c5c(F)ccc6ccc(=O)n(c56)[C@H]4C(=O)O)OC3=O)cc2N1 (relative stereo) [Example 186, (1R*,2R*)-9-fluoro-4-oxo-1-{3-[(R)-2-oxo-3-(3-oxo-3,4-dihydro-2H-benzo[1,4]thiazin-6-yl)-oxazolidin-5-yl]-propylamino}-1,2-dihydro-4H-pyrrolo[3,2,1-ij]quinoline-2-carboxylic acid hydrochloride]	0.5
O=C1CSc2ccc(N3C[C@@H](CCNCC4CN5C(=O)CCc6ccc(F)c4c65)OC3=O)cc2N1 (mixture of isomers) [Example 23, (1RS)-9-fluoro-1-({2-[(R)-2-oxo-3-(3-oxo-3,4-dihydro-2H-benzo[1,4]thiazin-6-yl)-oxazolidin-5-yl]-ethylamino}-methyl)-1,2,5,6-tetrahydro-pyrrolo[3,2,1-ij]quinolin-4-one]	≤ 0.031
Cc1ccc(N2C[C@@H](CNCCC3Cn4c(=O)ccc5ccc(F)c3c54)OC2=O)cc1F (mixture of isomers) [Example 11, (1RS)-9-fluoro-1-(2-{[(R)-3-(3-fluoro-4-methyl-phenyl)-2-oxo-oxazolidin-5-ylmethyl]-amino}-ethyl)-1,2-dihydro-pyrrolo[3,2,1-ij]quinolin-4-one]	0.063
O=C1O[C@H](CCNCC2Cn3c(=O)ccc4ccc(F)c2c43)CN1c1ccc2c(c1)OCCO2 (mixture of isomers) [Example 46, (RS)-1-({2-[(R)-3-(2,3-dihydro-benzo[1,4]dioxin-6-yl)-2-oxo-oxazolidin-5-yl]-ethylamino}-methyl)-9-fluoro-1,2-dihydro-pyrrolo[3,2,1-ij]quinolin-4-one]	≤ 0.031
O=C1CSc2ccc(N3C[C@@H](CN(CCCO)CCC4Cn5c(=O)ccc6ccc(F)c4c65)OC3=O)cc2N1 (mixture of isomers) [Example 68, (RS)-9-fluoro-1-(2-{(3-hydroxy-propyl)-[(R)-2-oxo-3-(3-oxo-3,4-dihydro-2H-benzo[1,4]thiazin-6-yl)-oxazolidin-5-ylmethyl]-amino}-ethyl)-1,2-dihydro-pyrrolo[3,2,1-ij]quinolin-4-one]	≤ 0.031
O=C1CSc2ccc(N3C[C@@H](CCCN(CCO)C4Cn5c(=O)ccc6ccc(F)c4c65)OC3=O)cc2N1 (mixture of isomers) [Example 93, (RS)-9-fluoro-1-((2-hydroxy-ethyl)-{3-[(R)-2-oxo-3-(3-oxo-3,4-dihydro-2H-benzo[1,4]thiazin-6-yl)-oxazolidin-5-yl]-propyl}-amino)-1,2-dihydro-pyrrolo[3,2,1-ij]quinolin-4-one]	≤ 0.031
O=C1CSc2ccc(N3C[C@@H](CCCN[C@H]4Cn5c(=O)ccc6nccc4c65)OC3=O)cc2N1 [Example 18, (4R)-4-{3-[(R)-2-oxo-3-(3-oxo-3,4-dihydro-2H-benzo[1,4]thiazin-6-yl)-oxazolidin-5-yl]-propylamino}-4,5-dihydro-pyrrolo[3,2,1-de][1,5]naphthyridin-7-one]	≤ 0.031
CCOc1ccc(N2C[C@@H](CCNCC3Cn4c(=O)ccc5ccc(F)c3c54)OC2=O)cc1 (mixture of isomers) [Example 44, (RS)-1-({2-[(R)-3-(4-ethoxy-phenyl)-2-oxo-oxazolidin-5-yl]-ethylamino}-methyl)-9-fluoro-1,2-dihydro-pyrrolo[3,2,1-ij]quinolin-4-one]	0.125
O=C1CSc2ccc(N3C[C@@H](CCCNC4Cn5c(=O)ccc6ncc(F)c4c65)OC3=O)cc2N1 (mixture of isomers) [Example 94, (RS)-3-fluoro-4-{3-[(R)-2-oxo-3-(3-oxo-3,4-dihydro-2H-benzo[1,4]thiazin-6-yl)-oxazolidin-5-yl]-propylamino}-4,5-dihydro-pyrrolo[3,2,1-de][1,5]naphthyridin-7-one]	≤ 0.031
O=C1CSc2ccc(N3C[C@H](CCNC[C@@H]4Cn5c(=O)ccc6ccc(F)c4c65)OC3=O)cc2N1 [Example 50, (R)-9-fluoro-1-({2-[(S)-2-oxo-3-(3-oxo-3,4-dihydro-2H-benzo[1,4]thiazin-6-yl)-oxazolidin-5-yl]-ethylamino}-methyl)-1,2-dihydro-pyrrolo[3,2,1-ij]quinolin-4-one]	≤ 0.031

same assay, conditions: strain A894

Molecule	MIC for M. catarrhalis A894
(1R,2S)-2-methyl-1-{3-[(R)-2-oxo-3-(3-oxo-3,4-dihydro-2H-benzo[1,4]thiazin-6-yl)-oxazolidin-5-yl]-propylamino}-1,2-dihydro-pyrrolo[3,2,1-ij]quinolin-4-one and (1S,2R)-2-methyl-1-{3-[(R)-2-oxo-3-(3-oxo-3,4-dihydro-2H-benzo[1,4]thiazin-6-yl)-oxazolidin-5-yl]-propylamino}-1,2-dihydro-pyrrolo[3,2,1-ij]quinolin-4-one [Example 166]	≦0.031 mg/l
Cc1ccc(N2C[C@@H](CCNC[C@@H]3Cn4c(=O)ccc5ccc(F)c3c54)OC2=O)cc1F (racemic) [Example 6, (1RS)-9-fluoro-1-({2-[(RS)-3-(3-fluoro-4-methyl-phenyl)-2-oxo-oxazolidin-5-yl]-ethylamino}-methyl)-1,2-dihydro-pyrrolo[3,2,1-U]quinolin-4-one]	0.125 µg/mL
O=C1CSc2ccc(N3C[C@@H](CCNCC4Cn5c(=O)ccc6cccc4c65)OC3=O)cc2N1 (mixture of isomers) [Example 53, (RS)-1-({2-[(R)-2-oxo-3-(3-oxo-3,4-dihydro-2H-benzo[1,4]thiazin-6-yl)-oxazolidin-5-yl]-ethylamino}-methyl)-1,2-dihydro-pyrrolo[3,2,1-U]quinolin-4-one]	≦0.031 mg/l
